The test system of experiment [1] is CTLs with target cells expressing HLA-A*24 molecules. The experiment can be described thus: Confirmation of CTLs by ELISPOT assay (IFNγ spots). Format: cell-based, human. The note with it: FIG. 4. As to the method: A commercially available ELISPOT assay kit (for example, MABTECH Co.) may be purchased, and the assay can be performed according to the manufacturer's protocol. Alternatively, the assay may also be carried out by the following procedure. 96-well MultiScreen-HA plates (Millipore Co.) were coated with an anti-IFNγ monoclonal antibody (R&D Systems Co.) at 4° C. for overnight. Each well was washed with PBS. Target cells were plated into each well. Any cells expressing HLA-A*24 molecules on their surface can be used as the target cells. For example, T2-A24, a cultured cell which a gene of HLA-A*24 molecule is introduced into a 174CEM.T2 cell, can be used. Alternatively, EBV-infected LCLs expressing HLA-A*24 molecules on their surface can be used as the target cells. These target cells were added into each well with a candidate peptide for adenovirus-specific CTL epitopes or a negative control (HIV) peptide. The mixtures were allowed to stand at room temperature for 30 minutes. Then, an adequate number of CTLs were added, and the mixtures were cultured in a 5% CO2 incubator at 37° C. for 20 hours. CTLs that responded to the candidate epitope peptide secreted IFNγ during this culture period, and the IFNγ bound to the anti-IFNγ monoclonal antibody that was coated on the plates. After culturing was completed, the plates were washed with PBS containing 0.05% Tween-20. Then, an anti-IFNγ polyclonal antibody (Genzyme Co.) and peroxidase-labeled goat anti-rabbit IgG serum were allowed to react in this order at room temperature for 90 minutes each. Furthermore, 3-amino-9-ethylcarbasole (Sigma), a peroxidase substrate, and 0.1M sodium acetate buffer (pH 5.0) containing 0.015% H2O2 was added to each well, and the plates were incubated at room temperature for 40 minutes to visualize the IFNγ spots. The spots were counted under a stereomicroscope.
The spots were counted under a stereomicroscope, and were plotted on a graph.

Experiment [2] concerns PBMCs of healthy adults reactive to the anti-HLA-A*24 antibody. The experiment can be described thus: Induction of specific CTLs from PBMCs, method for quantifying cells producing intracellular IFNγ. Format: cell-based, human. Further details: key to specific CTL induction, cytokine quantification method: ∘: “open circle” indicates that the use of a candidate peptide enabled specific CTLs to be induced; x: “cross” indicates that specific CTLs was unable to be induced. As to conditions: for peptide-specific cytokine production in PBMCs derived from ten people with HLA-A*24 molecule: summary of Table 2. As to the method: This induction method induces CTLs by adding peptides to culture media of PBMCs. Peptides are presented on antigen-presenting cells present among PBMCs, such as dendritic cells, B cells, macrophages, and certain types of T cells, whereby CTL precursor cells in PBMCs are stimulated to proliferate.
Peripheral blood collected from healthy adults that were reactive to the anti-HLA-A*24 antibody was centrifuged at 3,000 rpm for 5 to 10 minutes. The resulting supernatant plasma was collected. The non-plasma portion was processed according to a conventional method to isolate PBMCs. The characteristic of the present method is the addition of several % of plasma to an induction medium. In the present invention, a favorable result was obtained by adding 5% plasma. The medium is prepared by adding appropriate additives and antibiotics to a medium commonly used for cell culture. The CTL induction medium used in the present invention was RPMI1640 Hepes modify (Sigam) supplemented with 2-mercapotethanol, L-glutamine, and the antibiotics streptomycin and penicillin. In addition to these, insulin, transferrin, selenious acid, pyruvic acid, human serum albumin, solution of non-essential amino acids, and the like may be added. 1 to 3×10^6 PBMCs were suspended in 1 to 2.5 ml of the culture medium. A candidate peptide was added to the cells at a concentration of 1 to 20 μg/ml. The concentration of peptide can be altered depending on the solubility of the peptide. The peptide was added at 10 μg/ml. After two days, IL-2 was added at a final concentration of 20 to 100 U/ml. Round-bottomed culture dishes that allow the exchange of carbon dioxide gas are preferably used to co-culture PBMCs with peptides. In the context of the present invention, 14-ml round-bottomed polypropylene tubes (Becton Dikinson) or 96-well U-bottomed cell culture microtest plates (Becton Dikinson) were used. The adenovirus-specific CTLs were confirmed after about two and four weeks of culture. The cells were stimulated again with the peptide at 10 μg/ml after about two weeks of culture. When the induction of adenovirus-specific CTLs was confirmed, the cells were further stimulated with peptide-pulsed antigen-presenting cells to establish CTL lines.
Approximately 1/10 to all of the cells induced by the above-described method were transferred into 96-well U-bottomed cell culture microtest plates, and the peptide used for the induction was added thereto at a final concentration of 0.01 to 0.05 μg/ml. Then, an intracellular protein transport inhibitor (for example, brefeldin A, monensin, or such) was added, and the cells were cultured in a 5% CO2 incubator at 37° C. for 5 to 16 hours. After culture, the cells were washed, and phycoerythrin (PE)-labeled MHC-tetramer reagent and phycoerythrin-Cy5(PC5)-labeled CD8 antibody (Beckman Coulter) were added thereto. The resulting mixture was allowed to stand at room temperature for 15 to 30 minutes. After washing, the cells were fixed with 4% formaldehyde at 4° C. for 15 minutes and washed with an excess amount of washing solution. After membrane permeabilization treatment with 0.1% saponin, an FITC-labeled anti-IFNγ antibody (Beckman Coulter) was added, and reacted at room temperature for 15 to 30 minutes. After washing, the proportion of IFNγ-positive cells in T cells or MHC-tetramer reagent-positive cells was determined using a flow cytometer.
PBMCs derived from ten people with HLA-A*24 molecule were tested using 10 types of peptides. […] Thus, these six types of candidate epitope peptides serve as adenovirus-specific CTL epitope peptides. Since the adenovirus-specific CTL epitope peptides have the HLA-A*24-binding motif, they are likely to be HLA-A*2402-restricted epitope peptides, which are carried by 60% or more of the Japanese people. In the context of the results described above, MHC-tetramer reagents were synthesized using five types of epitope peptides, and their utility was tested.

No end group written: not given here.

For LYANSAHAL, in experiment [1], the “IFNγ spots in ELISPOT assay compared with the negative control (HIV) peptide” value was “IFNγ spots were observed”. Moreover, the “specific CTL induction, cytokine quantification method” value is recorded as “x” in experiment [2] (donor ID *24-1); “x” in experiment [2] (donor ID *24-2); “∘” in experiment [2] (donor ID *24-3); “x” in experiment [2] (donor ID *24-5); “∘” in experiment [2] (donor ID *24-8); “x” in experiment [2] (donor ID *24-10). In addition, the “specific CTL induction, cytokine quantification method” value in experiment [2] (donor ID *24-11), in experiment [2] (donor ID *24-12), in experiment [2] (donor ID *24-13) and in experiment [2] (donor ID *24-14) was “x” throughout. In addition, the “specific CTL induction confirmed by CD8-positive, IFNγ-positive cells versus HIV peptide” value in experiment [2] (donor ID*24-8, FIG. 3a-d) is given as “induced specific CTLs”. The “peptide-specific cytokine production in PBMCs derived from ten people with HLA-A*24 molecule” value in experiment [2] is “induce cytokine production in a peptide-specific manner”.
LYSNVALYL: in experiment [1], the “IFNγ spots in ELISPOT assay compared with the negative control (HIV) peptide” value is “IFNγ spots were observed”. In addition, in experiment [2] (donor *24-12, restimulation with the same peptide as used in the induction, % in PBMCs), the “CD8-positive, IFNγ-positive (producing) cells in UR” value is 2.95%. In addition, the “specific CTL induction, cytokine quantification method” value in experiment [2] (donor ID *24-1), in experiment [2] (donor ID *24-2), in experiment [2] (donor ID *24-3), in experiment [2] (donor ID *24-5), in experiment [2] (donor ID *24-8) and in experiment [2] (donor ID *24-10) was “x” throughout. In addition, the “specific CTL induction, cytokine quantification method” value in experiment [2] (donor ID *24-11) is listed as “x”; in experiment [2] (donor ID *24-12), “∘”; in experiment [2] (donor ID *24-13), “∘”; in experiment [2] (donor ID *24-14), “x”. Moreover, the “specific CTL induction confirmed by CD8-positive, IFNγ-positive cells versus HIV peptide” value in experiment [2] (donor ID*24-12, FIG. 3e-h) is listed as “specific CTL induction was confirmed”. In addition, the “peptide-specific cytokine production in PBMCs derived from ten people with HLA-A*24 molecule” value in experiment [2] is on record as “induce cytokine production in a peptide-specific manner”. In experiment [2] (ten persons tested), the “number of persons with peptide-specific IFNγ production / CTL induction” value is reported as “two of the ten persons”.

The values above are taken from patent US20090142363A1, “CYTOTOXIC T-CELL EPITOPE PEPTIDE AND USE THEREOF” (priority 2005, published 2009).
